Read-outs that look alike come from different tables or passages of the source.
Experiments:
[1] = biological target: full-length human PLD1 (Homo sapiens (Human), UniProt Q13393); assay: Evaluation of human PLD1 enzyme inhibitory activity (Amplex Red / choline oxidase fluorescence); assay type: biochemical
Outline: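 N-terminally FLAG-tagged full-length human PLD1 (1-1036), expressed in Expi293F and FLAG-purified, incubated with compound (5% DMSO final) and 1,2-diheptanoyl-sn-glycero-3-phosphocholine for 60 min at room temperature in HEPES pH 7.5 buffer. Released choline detected by Amplex Red/choline oxidase/HRP fluorescence.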

[2] = biological target: full-length human PLD2 (Homo sapiens (Human), UniProt O14939); assay: Evaluation of human PLD2 enzyme inhibitory activity (Amplex Red / choline oxidase fluorescence); assay type: biochemical
Outline: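 Enzyme was N-terminal FLAG-tagged full-length human PLD2 (1-933), expressed in Expi293F cells and anti-FLAG purified. Compound (5% DMSO final) was incubated with enzyme (6 nmol/L solution) and 1,2-diheptanoyl-PC (6 mmol/L solution) in HEPES pH 7.5, KCl, EGTA, MgCl2, NP-40, BSA buffer for 60 min at room temperature. Choline was detected with Amplex Red/choline oxidase/HRP.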

[3] = full-length human PLD1 enzyme, read-out: PLD1 IC50
[4] = full-length human PLD2 enzyme, read-out: PLD2 IC50

Chain of full-length human PLD1 (Q13393 other isoform, or with tags, fused parts or gaps): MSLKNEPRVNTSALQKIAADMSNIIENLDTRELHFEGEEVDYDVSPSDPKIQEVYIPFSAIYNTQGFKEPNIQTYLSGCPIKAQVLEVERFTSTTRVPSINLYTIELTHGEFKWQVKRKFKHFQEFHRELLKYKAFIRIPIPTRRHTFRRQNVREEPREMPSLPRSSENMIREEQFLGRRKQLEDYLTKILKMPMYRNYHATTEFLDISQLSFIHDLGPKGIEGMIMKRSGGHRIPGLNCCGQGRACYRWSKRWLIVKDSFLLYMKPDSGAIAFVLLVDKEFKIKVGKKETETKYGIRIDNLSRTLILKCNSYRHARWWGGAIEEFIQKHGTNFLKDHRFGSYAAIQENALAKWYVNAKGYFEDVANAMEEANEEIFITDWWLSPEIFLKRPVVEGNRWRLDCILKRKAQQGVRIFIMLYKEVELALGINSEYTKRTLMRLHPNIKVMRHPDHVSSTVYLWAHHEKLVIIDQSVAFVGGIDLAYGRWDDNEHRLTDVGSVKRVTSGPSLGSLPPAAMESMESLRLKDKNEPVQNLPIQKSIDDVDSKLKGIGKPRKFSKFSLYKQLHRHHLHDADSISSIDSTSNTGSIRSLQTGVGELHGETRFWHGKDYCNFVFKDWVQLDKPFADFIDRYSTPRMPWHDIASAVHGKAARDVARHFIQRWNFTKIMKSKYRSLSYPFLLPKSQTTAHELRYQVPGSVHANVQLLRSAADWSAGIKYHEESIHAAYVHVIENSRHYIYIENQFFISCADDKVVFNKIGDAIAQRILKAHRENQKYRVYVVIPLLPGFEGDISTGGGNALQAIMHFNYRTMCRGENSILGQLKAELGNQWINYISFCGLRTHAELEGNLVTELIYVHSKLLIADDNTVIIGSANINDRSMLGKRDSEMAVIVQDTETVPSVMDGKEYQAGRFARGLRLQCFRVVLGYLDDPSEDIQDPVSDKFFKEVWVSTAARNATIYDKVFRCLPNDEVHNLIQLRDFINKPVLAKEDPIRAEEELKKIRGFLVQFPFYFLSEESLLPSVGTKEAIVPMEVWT
Chain of full-length human PLD2 (O14939 whole entry): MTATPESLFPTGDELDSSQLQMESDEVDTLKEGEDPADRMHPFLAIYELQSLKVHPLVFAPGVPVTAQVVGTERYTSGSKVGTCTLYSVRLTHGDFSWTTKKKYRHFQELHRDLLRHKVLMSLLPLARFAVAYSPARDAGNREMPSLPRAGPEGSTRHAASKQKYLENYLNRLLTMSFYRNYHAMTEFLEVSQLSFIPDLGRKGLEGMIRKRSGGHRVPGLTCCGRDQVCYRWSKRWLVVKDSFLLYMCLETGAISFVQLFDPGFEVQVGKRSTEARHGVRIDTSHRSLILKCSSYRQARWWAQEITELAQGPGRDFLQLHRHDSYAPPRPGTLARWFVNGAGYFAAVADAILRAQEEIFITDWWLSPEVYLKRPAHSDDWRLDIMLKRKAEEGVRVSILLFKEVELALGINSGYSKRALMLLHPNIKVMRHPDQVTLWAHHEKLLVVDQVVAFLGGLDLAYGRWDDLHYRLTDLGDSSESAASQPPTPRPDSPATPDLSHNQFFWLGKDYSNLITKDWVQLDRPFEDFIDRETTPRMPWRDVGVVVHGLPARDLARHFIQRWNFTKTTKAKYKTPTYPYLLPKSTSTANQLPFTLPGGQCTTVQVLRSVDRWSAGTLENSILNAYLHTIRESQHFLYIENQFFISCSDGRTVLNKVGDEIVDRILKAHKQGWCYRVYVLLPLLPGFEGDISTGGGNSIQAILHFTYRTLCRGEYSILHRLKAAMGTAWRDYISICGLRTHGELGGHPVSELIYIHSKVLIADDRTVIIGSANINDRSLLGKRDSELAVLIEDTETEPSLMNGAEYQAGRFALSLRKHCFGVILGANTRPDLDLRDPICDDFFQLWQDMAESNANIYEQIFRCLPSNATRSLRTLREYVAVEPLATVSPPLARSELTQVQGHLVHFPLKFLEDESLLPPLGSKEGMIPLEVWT

`Cc1cccnc1C1=NNC(=O)O[C@]12CC[C@@H](C[C@H](C)NC(=O)c1cc3ccccc3o1)CC2` [Example 149] gave an IC50 [1, 3] of 0.012 µM and an IC50 [2, 4] of less than 0.01 µM.

For `COc1cc(C)c(C2=NNC(=O)O[C@]23CC[C@@H](C[C@H](C)NC(=O)NCc2ccccn2)CC3)cn1` [Example 261], the IC50 [1, 3] was 0.168 µM and the IC50 [2, 4] was 0.313 µM.

`Cc1cc(C(=O)N[C@@H](C)C[C@]2(O)CC[C@]3(CC2)OC(=O)NN=C3c2ccc(F)cc2Br)[nH]n1` [Example 320, N—((S)-1-(cis-5-(2-bromo-4-fluorophenyl)-9-hydroxy-2-oxo-1-oxa-3,4-diazaspiro[5.5]undec-4-en-9-yl)propan-2-yl)-3-methyl-1H-pyrazole-5-carboxamide] gave an IC50 [1, 3] of 3.88 µM and an IC50 [2, 4] of 1.58 µM.

With `CNC(=O)C(=O)N[C@@H](C)C[C@H]1CC[C@]2(CC1)OC(=O)NN=C2c1cc(Cl)ccc1Cl` [Example 314] the IC50 [1, 3] was less than 0.01 µM and the IC50 [2, 4] was less than 0.01 µM.

In the case of `CC(=O)NCC(=O)N[C@@H](C)C[C@H]1CC[C@]2(CC1)OC(=O)NN=C2c1ccc(F)cc1Br` [Example 213], the IC50 [1, 3] is reported as 0.086 µM and the IC50 [2, 4] is reported as 0.115 µM.

In the case of `CNC(=O)C(=O)N[C@@H](C)C[C@H]1CC[C@]2(CC1)OC(=O)NN=C2c1cc(C(C)(C)O)ccc1Br` [Example 2-026], the IC50 [1, 3] is reported as 0.012 µM and the IC50 [2, 4] is reported as less than 0.01 µM.

Compound `CNC(=O)C(=O)N[C@@H](C)C[C@H]1CC[C@]2(CC1)OC(=O)NN=C2c1ccc(C(C)=O)cc1C` [Example 167] has an IC50 [1, 3] of 0.02 µM and an IC50 [2, 4] of less than 0.01 µM.

`Cc1ccncc1C1=NNC(=O)O[C@]12CC[C@@H](C[C@H](C)NC(=O)c1nc3ccccc3[nH]1)CC2` [Example 146] gave an IC50 [1, 3] of 0.02 µM and an IC50 [2, 4] of less than 0.01 µM.

In the case of `C[C@@H](C[C@H]1CC[C@]2(CC1)OC(=O)NN=C2c1ccc(S(C)(=O)=O)cc1Br)NC(=O)c1cc2cc(F)ccc2[nH]1` [Example 32], the IC50 [1, 3] is reported as 0.032 µM and the IC50 [2, 4] is reported as less than 0.01 µM.

With `C[C@@H](C[C@H]1CC[C@]2(CC1)OC(=O)NN=C2c1cnc(C2CC2)cc1Cl)NC(=O)N1CCn2nccc2C1` [Example 277] the IC50 [1, 3] was 0.017 µM and the IC50 [2, 4] was less than 0.01 µM.

Work on `CNC(=O)C(=O)N[C@@H](C)CC1CC[C@]2(C[C@@H]1F)OC(=O)NN=C2c1ccc(F)cc1Br` (some centres unmarked) [Example 285] yielded an IC50 [1, 3] of less than 0.01 µM and an IC50 [2, 4] of less than 0.01 µM.

For `CNC(=O)C(=O)N[C@@H](C)C[C@H]1CC[C@]2(CC1)OC(=O)NN=C2c1cnc(C2CC2)cc1C` [Example 171], the IC50 [1, 3] was 0.013 µM and the IC50 [2, 4] was less than 0.01 µM.

With `[2H]C([2H])([2H])NC(=O)C(=O)N[C@@H](C)C[C@]1(C#N)CC[C@@]2(CC1)OC(=O)NN=C2c1cc(OC(F)F)ccc1Br` [Example 2-113] the IC50 ([1]; column 1 of continuation tables 2-12 to 2-14, read-out: human PLD1 enzyme inhibitory activity IC50) was 0.014 µM and the IC50 ([2]; column 2 of continuation tables 2-12 to 2-14, read-out: human PLD2 enzyme inhibitory activity IC50) was less than 0.01 µM.

`Cc1cc(Cl)c(C2=NNC(=O)O[C@]23CC[C@@H](C[C@H](C)NC(=O)c2cc(C)n[nH]2)CC3)cn1` [Example 231] showed an IC50 [1, 3] of 0.024 µM and an IC50 [2, 4] of 0.012 µM.

In the case of `C[C@@H](C[C@H]1CC[C@]2(CC1)OC(=O)NN=C2c1cc(Cl)ccc1Cl)NC(=O)c1cc2ccccn2c1` [Example 323], the IC50 [1, 3] is reported as 0.01 µM and the IC50 [2, 4] is reported as less than 0.01 µM.

`CNC(=O)C(=O)N[C@@H](C)C[C@H]1CC[C@]2(CC1)OC(=O)NN=C2c1cc(F)ccc1Br` [Example 157] gave an IC50 [1, 3] of less than 0.01 µM and an IC50 [2, 4] of less than 0.01 µM.

`Cc1cc(C(=O)N[C@H](C)CN2CCC3(CC2)OC(=O)NN=C3c2ccc(F)cc2Br)[nH]n1` [Example 2-012] showed an IC50 [1, 3] of 2.04 µM and an IC50 [2, 4] of 0.245 µM.

With `CNC(=O)C(=O)N[C@@H](C)C[C@H]1CC[C@]2(CC1)OC(=O)NN=C2c1cnc(N2CC(C)C2)cc1C` [Example 182] the IC50 [1, 3] was 0.019 µM and the IC50 [2, 4] was less than 0.01 µM.

For `Cc1cc(C(=O)N[C@@H](C)CN2CCC3(CC2)OC(=O)NN=C3c2ccc(F)cc2Br)[nH]n1` [Example 3], the IC50 [1, 3] was 0.027 µM and the IC50 [2, 4] was less than 0.01 µM.

`CNC(=O)C(=O)N[C@@H](C)C[C@H]1CC[C@]2(CC1)OC(=O)NN=C2c1cnc(N2CCC2)cc1C` [Example 159] showed an IC50 [1, 3] of 0.028 µM and an IC50 [2, 4] of less than 0.01 µM.

With `C[C@@H](C[C@H]1CC[C@]2(CC1)OC(=O)NN=C2c1cc(C#N)ccc1Br)NC(=O)c1ncon1` [Example 293] the IC50 [1, 3] was 0.127 µM and the IC50 [2, 4] was 0.325 µM.

For `CNC(=O)C(=O)N[C@@H](C)C[C@H]1CC[C@]2(CC1)OC(=O)NN=C2c1ccc(C#N)cc1Br` [Example 57, N^1—((S)-1-(cis-5-(2-bromo-4-cyanophenyl)-2-oxo-1-oxa-3,4-diazaspiro[5.5]undec-4-en-9-yl)propan-2-yl)-N^2-methyloxamide], the IC50 [1, 3] was 0.016 µM and the IC50 [2, 4] was less than 0.01 µM.

In the case of `C[C@@H](C[C@H]1CC[C@]2(CC1)OC(=O)NN=C2c1ccccc1SC(F)(F)F)NC(=O)c1cnn(C)c1` [Example 2-020], the IC50 [1, 3] is reported as 0.021 µM and the IC50 [2, 4] is reported as 0.016 µM.

With `CNC(=O)C(=O)N[C@@H](C)CN1CCC2(CC1)OC(=O)NN=C2c1c(F)cccc1Br` [Example 2-018] the IC50 [1, 3] was 0.022 µM and the IC50 [2, 4] was less than 0.01 µM.

`CNC(=O)C(=O)N[C@@H](C)C[C@H]1CC[C@]2(CC1)OC(=O)NN=C2c1cc(C#N)ccc1C` [Example 287] gave an IC50 [1, 3] of 0.013 µM and an IC50 [2, 4] of less than 0.01 µM.

With `CNC(=O)C(=O)N[C@@H](C)C[C@H]1CC[C@]2(CC1)OC(=O)NN=C2c1cnc(N2CC(C(F)(F)F)C2)cc1C` [Example 192] the IC50 [1, 3] was 0.021 µM and the IC50 [2, 4] was less than 0.01 µM.

In the case of `CBC(=O)C(=O)N[C@@H](C)C[C@H]1CC[C@]2(CC1)OC(=O)NN=C2c1ccc(S(C)(=O)=O)cc1Cl` [Example 51], the IC50 [1, 3] is reported as 0.033 µM and the IC50 [2, 4] is reported as 0.016 µM.

`Cc1cc(C(=O)N[C@@H](C)C[C@H]2CC[C@]3(CC2)OC(=O)NN=C3c2cnc(N3C[C@H]4C[C@@H]3CO4)cc2Cl)[nH]n1` [Example 239] showed an IC50 [1, 3] of 0.018 µM and an IC50 [2, 4] of less than 0.01 µM.

`C[C@@H](C[C@H]1CC[C@]2(CC1)OC(=O)NN=C2c1ccc(S(C)(=O)=O)cc1Cl)NC(=O)c1cc2cc(F)ccc2o1` [Example 117] was tested, and the IC50 [1, 3] was 0.021 µM and the IC50 [2, 4] was 0.018 µM.

Compound `CNC(=O)C(=O)N[C@@H](C)C[C@H]1CC[C@]2(CC1)OC(=O)NN=C2c1cnc(OC)cc1C` [Example 154] has an IC50 [1, 3] of 0.027 µM and an IC50 [2, 4] of 0.014 µM.

Compound `CNC(=O)C(=O)N[C@@H](C)C[C@]1(C#N)CC[C@@]2(CC1)OC(=O)NN=C2c1cc(C#N)ccc1Br` [Example 2-040] has an IC50 [1, 3] of 0.021 µM and an IC50 [2, 4] of less than 0.01 µM.

For `CNC(=O)C(=O)N[C@@H](C)C[C@H]1CC[C@]2(CC1)OC(=O)NN=C2c1cnc(C(=O)O)cc1C` [Example 186], the inhibition at 10 µM ([1]; 10 μM compound, read-out: PLD1 inhibition rate at 10 μM) was 33%, the inhibition at 10 µM ([1]; read-out: inhibition rate of PLD1 at 10 μM compound) was 33% and the inhibition at 10 µM ([2]; 10 μM compound, read-out: PLD2 inhibition rate at 10 μM) was 18%. The inhibition at 10 µM ([2]; read-out: inhibition rate of PLD2 at 10 μM compound) was 18%.

`Cc1cc(F)ccc1C1=NNC(=O)O[C@]12CC[C@@H](C[C@H](C)NC(=O)N1CC[C@@H](c3ccccc3)C1)CC2` [Example 138] showed an IC50 [1, 3] of 0.774 µM and an IC50 [2, 4] of 1.4 µM.

Compound `C[C@@H](C[C@H]1CC[C@]2(CC1)OC(=O)NN=C2c1cc(C#N)ccc1Br)NC(=O)C(=O)NC1CC1` [Example 292] has an IC50 [1, 3] of 0.023 µM and an IC50 [2, 4] of less than 0.01 µM.

For `Cc1cc(C(=O)N[C@@H](C)C[C@H]2CC[C@]3(CC2)OC(=O)NN=C3c2ccc(C(=O)NC3CC3)cc2C)[nH]n1` [Example 204], the IC50 [1, 3] was 0.123 µM and the IC50 [2, 4] was 0.146 µM.

In the case of `CNC(=O)/C=C/C(=O)N[C@@H](C)CN1CCC2(CC1)OC(=O)NN=C2c1cc(C#N)ccc1Br` [Example 2-041], the IC50 [1, 3] is reported as 0.148 µM and the IC50 [2, 4] is reported as 0.103 µM.

`C[C@@H](C[C@H]1CC[C@]2(CC1)OC(=O)NN=C2c1ccc(F)cc1Br)NC(=O)C1CC1` [Example 21] was tested, and the IC50 [1, 3] was 0.307 µM and the IC50 [2, 4] was 0.346 µM.

`CNC(=O)C(=O)N[C@@H](C)CN1CCC2(CC1)OC(=O)NN=C2c1cc(C#N)ccc1Cl` [Example 2-006] was tested, and the IC50 [1, 3] was 0.056 µM and the IC50 [2, 4] was 0.011 µM.

`CC(C)=CC(=O)N[C@@H](C)CN1CCC2(CC1)OC(=O)NN=C2c1cc(C#N)ccc1Br` [Example 2-022] showed an IC50 [1, 3] of 0.738 µM and an IC50 [2, 4] of 0.388 µM.

From patent US20240101572A1, “DIHYDROOXADIAZINONE COMPOUND AND PHARMACEUTICAL USE THEREOF” (Japan Tobacco Inc., priority 2022, published 2024)
